For this assay, the target named is T1, IDO1 (Homo sapiens, UniProt P14902).
T1 construct: endogenous in cells; host or cells: HeLa cells (ATCC), IDO1 induced with 10 ng/mL IFNgamma
The assay can be described thus: IDO1 cell-based assay. Particulars: HeLa cells, 10 ng/mL IFNgamma, 24 hours with test compound; N-Formyl Kynurenine and L-tryptophan quantified by RFMS.

T1 sequence (P14902 whole entry): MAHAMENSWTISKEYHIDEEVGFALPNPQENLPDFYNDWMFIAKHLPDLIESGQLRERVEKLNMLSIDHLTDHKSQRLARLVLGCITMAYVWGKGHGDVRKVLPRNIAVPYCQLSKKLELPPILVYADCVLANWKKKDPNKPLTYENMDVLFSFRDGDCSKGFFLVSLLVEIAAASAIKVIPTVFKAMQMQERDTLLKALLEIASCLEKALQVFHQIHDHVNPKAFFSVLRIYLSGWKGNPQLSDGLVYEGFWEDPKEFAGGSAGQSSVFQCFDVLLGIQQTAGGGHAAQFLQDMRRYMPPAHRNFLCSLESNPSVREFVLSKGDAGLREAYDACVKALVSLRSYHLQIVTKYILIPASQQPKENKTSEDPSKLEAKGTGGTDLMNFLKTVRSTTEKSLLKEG

For orientation: IC50 means the concentration that gives 50% inhibition. A lower IC50 goes with higher potency. As for `C[C@H](C(=O)Nc1ccc(-c2cnc[nH]2)cc1)[C@H]1[C@@H]2C[C@@H](n3cnc4cc(F)c(F)cc43)C[C@@H]21` [Example 90, (S)-N-(4-(1H-imidazol-5-yl)phenyl)-2-((1R,3R,5S,6r)-3-(5,6-difluoro-1H-bcnzo[d]-imidazol-1-yl)bicyclo-[3.1.0]hexan-6-yl)-propanamide], it took 550 nM to reach half-maximal inhibition (IC50). Then `CC(C)n1cc(-c2ccc(NC(=O)[C@@H](C)[C@H]3[C@@H]4C[C@@H](n5cnc6cc(F)c(F)cc65)C[C@@H]43)cc2)cn1` [Example 91, (S)-2-((1R,3R,5S,6r)-3-(5,6-difluoro-1H-benzo[d]-imidazol-1-yl)bicyclo-[3.1.0]hexan-6-yl)-N-(4-(1-isopropyl-1H-pyrazol-4-yl)phenyl)propanamide], with 504 nM; and `C[C@H](C(=O)Nc1ccc(-c2ccc(F)cc2)cc1)[C@H]1[C@@H]2C[C@@H](n3cnc4cc(F)c(F)cc43)C[C@@H]21` [Example 93, (S)-2-((1R,3R,5S,6r)-3-(5,6-difluoro-1H-benzo[d]-imidazol-1-yl)bicyclo-[3.1.0]hexan-6-yl)-N-(4′-fluoro-[1,1′-biphenyl]-4-yl)propanamide], with 329 nM.

Take `CC(C(=O)NC1CCN(C(=O)OC(C)(C)C)CC1)[C@H]1[C@@H]2C[C@@H](Oc3ccnc4ccc(F)cc34)C[C@@H]21` (stereo partly drawn) [Example 94, tert-butyl 4-(2-((1R,3s,5S,6r)-3-((6-fluoroquinolin-4-yl)oxy)-bicyclo[3.1.0]hexan-6-yl)-propanamido)piperidine-1-carboxylate]: the IC50 was 1090 nM. In turn, `CC(C(=O)Nc1nc2c(Br)cc(Cl)cc2s1)[C@H]1[C@@H]2C[C@@H](Oc3ccnc4ccc(F)cc34)C[C@@H]21` (stereo partly drawn) [Example 95, N-(4-bromo-6-chloro-benzo[d]thiazol-2-yl)-2-((1R,3s,5S,6r)-3-((6-fluoroquinolin-4-yl)-oxy)bicyclo[3.1.0]hexan-6-yl)propanamide] had a half-maximal inhibitory concentration (IC50) of 231 nM. Then `CC(C(=O)NC12CC(c3ccc(F)cc3)(C1)C2)[C@H]1[C@@H]2C[C@@H](Oc3ccnc4ccc(F)cc34)C[C@@H]21` (stereo partly drawn) [Example 100, N-(3-(4-fluorophenyl)-bicyclo[1.1.1]pentan-1-yl)-2-((1R,3s,5S,6r)-3-((6-fluoroquinolin-4-yl)-oxy)bicyclo[3.1.0]hexan-6-yl)propanamide], with 45.3 nM. Then `CC(C(=O)Nc1ccn(CC(F)(F)F)n1)[C@H]1[C@@H]2C[C@@H](Oc3ccnc4ccc(F)cc34)C[C@@H]21` (stereo partly drawn) [Example 105, 2-((1R,3s,5S,6r)-3-((6-fluoroquinolin-4-yl)oxy)-bicyclo[3.1.0]hexan-6-yl)-N-(1-(2,2,2-trifluoroethyl)-1H-pyrazol-3-yl)-propanamide], with 17.9 nM. Then `CC(C(=O)Nc1nc2ccccc2[nH]1)[C@H]1[C@@H]2C[C@@H](Oc3ccnc4ccc(F)cc34)C[C@@H]21` (stereo partly drawn) [Example 107, N-(1H-benzo[d]imidazol-2-yl)-2-((1R,3s,5S,6r)-3-((6-fluoroquinolin-4-yl)oxy)-bicyclo[3.1.0]hexan-6-yl)propanamide], with 9.2 nM; and `CCC(C(=O)Nc1ccc(C(N)=O)cn1)[C@H]1[C@@H]2C[C@@H](Oc3ccnc4ccc(F)cc34)C[C@@H]21` (stereo partly drawn) [Example 118, 6-(2-((1R,3s,5S,6r)-3-((6-fluoroquinolin-4-yl)oxy)-bicyclo[3.1.0]hexan-6-yl)-butanamido)nicotinamide], with 21.3 nM; and `CCC(C(=O)Nc1ccc(-n2cncn2)cn1)[C@H]1[C@@H]2C[C@@H](Oc3ccnc4ccc(F)cc34)C[C@@H]21` (stereo partly drawn) [Example 119, N-(5-(1H-1,2,4-triazol-1-yl)pyridin-2-yl)-2-((1R,3s,5S,6r)-3-((6-fluoro-quinolin-4-yl)oxy)-bicyclo[3.1.0]hexan-6-yl)-butanamide], with 6.9 nM. `CCC(C(=O)Nc1cnc(C)cn1)[C@H]1[C@@H]2C[C@@H](Oc3ccnc4ccc(F)cc34)C[C@@H]21` (stereo partly drawn) [Example 120, 2-((1R,3s,5S,6r)-3-((6-fluoroquinolin-4-yl)oxy)-bicyclo[3.1.0]hexan-6-yl)-N-(5-methylpyrazin-2-yl)-butanamide] gave an IC50 of 1.43 nM. Then `N#Cc1ccc(NC(=O)C(C2CC2)[C@H]2[C@@H]3C[C@@H](Oc4ccnc5ccc(F)cc45)C[C@@H]32)nc1` (stereo partly drawn) [Example 121, N-(5-cyanopyridin-2-yl)-2-cyclopropyl-2-((1R,3s,5S,6r)-3-((6-fluoroquinolin-4-yl)-oxy)bicyclo[3.1.0]hexan-6-yl)acetamide], with 1.67 nM. Then `N#Cc1ccc(NC(=O)C(C2CC2)[C@H]2[C@@H]3C[C@@H](Oc4ccnc5ccc(F)cc45)C[C@@H]32)nn1` (stereo partly drawn) [Example 124, N-(6-cyanopyridazin-3-yl)-2-cyclopropyl-2-((1R,3s,5S,6r)-3-((6-fluoroquinolin-4-yl)oxy)-bicyclo[3.1.0]hexan-6-yl)acetamide], with 8.41 nM; and `O=C(O)C(C1CC1)[C@H]1[C@@H]2C[C@@H](Oc3ccnc4ccc(F)cc34)C[C@@H]21` (stereo partly drawn) [Example 127, 2-cyclopropyl-2-((1R,3s,5S,6r)-3-((6-fluoroquinolin-4-yl)oxy)-bicyclo[3.1.0]hexan-6-yl)acetic acid], with 6310 nM. The figure for `CC(C(=O)NC12CC(NC(=O)CO)(C1)C2)[C@H]1[C@@H]2C[C@@H](Oc3ccnc4ccc(F)cc34)C[C@@H]21` (stereo partly drawn) [Example 129, 2-((1R,3s,5S,6r)-3-((6-fluoroquinolin-4-yl)oxy)-bicyclo[3.1.0]hexan-6-yl)-N-(3-(2-hydroxy-acetamido)bicyclo-[1.1.1]pentan-1-yl)-propanamide] is 597 nM. `CC(C(=O)NC12CC(NC(=O)CC#N)(C1)C2)[C@H]1[C@@H]2C[C@@H](Oc3ccnc4ccc(F)cc34)C[C@@H]21` (some centres unmarked) [Example 130]: the midpoint of inhibition, the IC50, lay at 636 nM. The figure for `COCC(=O)NC12CC(NC(=O)C(C)[C@H]3[C@@H]4C[C@@H](Oc5ccnc6ccc(F)cc56)C[C@@H]43)(C1)C2` (stereo partly drawn) [Example 132, 2-((1R,3s,5S,6r)-3-((6-fluoroquinolin-4-yl)oxy)-bicyclo[3.1.0]hexan-6-yl)-N-(3-(2-methoxyacetamido)-bicyclo[1.1.1]pentan-1-yl)-propanamide] is 511 nM.

In the case of `CC(=O)NC12CC(NC(=O)C(C)[C@H]3[C@@H]4C[C@@H](Oc5ccnc6ccc(F)cc56)C[C@@H]43)(C1)C2` (stereo partly drawn) [Example 133, N-(3-acetamidobicyclo-[1.1.1]pentan-1-yl)-2-((1R,3s,5S,6r)-3-((6-fluoro-quinolin-4-yl)oxy)bicyclo-[3.1.0]hexan-6-yl)-propanamide], the IC50 stood at 420 nM. Then `CC(c1nc2cc(C(F)(F)F)ccc2[nH]1)[C@H]1[C@@H]2C[C@@H](Oc3ccnc4ccc(F)cc34)C[C@@H]21` (stereo partly drawn) [Example 137, 6-fluoro-4-(((1R,3s,5S,6r)-6-(1-(5-(trifluoromethyl)-1H-benzo[d]imidazol-2-yl)-ethyl)bicyclo[3.1.0]hexan-3-yl)oxy)quinoline], with 1.2 nM. The figure for `CC(C(=O)Nc1cnn(-c2ccccc2)c1)[C@H]1[C@@H]2C[C@@H](Oc3ccnc4ccc(F)cc34)C[C@@H]21` (stereo partly drawn) [Example 143, 2-((1R,3s,5S,6r)-3-((6-fluoroquinolin-4-yl)-oxy)bicyclo[3.1.0]hexan-6-yl)-N-(1-phenyl-1H-pyrazol-4-yl)propanamide] is 2.77 nM; for `CCC(C(=O)Nc1ccc(C#N)nn1)[C@H]1[C@@H]2C[C@@H](Oc3ccnc4ccc(F)cc34)C[C@@H]21` (stereo partly drawn) [Example 149, N-(6-cyanopyridazin-3-yl)-2-((1R,3s,5S,6r)-3-((6-fluoroquinolin-4-yl)oxy)-bicyclo[3.1.0]hexan-6-yl)butanamide] it is 5.49 nM. Then “N-(5-(1H-1,2,4-triazol-1- yl)pyridin-2-yl)-2- ((1R,3s,5S,6r)-3-((6- fluoroquinolin-4-yl)- oxy)bicyclo[3.1.0]hexan-6- yl)propanamide [Example 96]”, with 7.1 nM; and “N-(5-cyanopyridin-2-yl)-2- ((1R,3s,5S,6r)-3-((6- fluoroquinolin-4-yl)oxy)- bicyclo[3.1.0]hexan-6-yl)- propanamide [Example 58]”, with 2 nM.

The record behind these values is US11046649B2, “Compounds useful as inhibitors of indoleamine 2,3-dioxygenase and/or tryptophan dioxygenase” (Board of Regents, The University of Texas System, priority 2018, dated 2021).
